Measurements taken from PMC6311682, “Design, Synthesis, and Biological Evaluation of 2-Nitroimidazopyrazin-one/-es with Antitubercular and Antiparasitic Activity” (Journal of Medicinal Chemistry, 2018).
Values after ≈ are worked out from the molar mass of the structure shown. Like-named read-outs stand apart in the source and are kept apart here.

Tests used:
[1] = Kinetic solubility determination by LC-UV; conditions: room temperature, 1% DMSO
M. tuberculosis (H37Rv) [2] = assay: M. tuberculosis H37Rv resazurin reduction microplate MIC assay, hypoxic conditions (0.1% oxygen); assay type: cell-based, Mycobacterium tuberculosis; conditions: H37Rv, hypoxia (0.1% oxygen)
[3] = system: L. donovani MHOM/IN/80/DD8 (ATCC50212); assay: L. donovani DD8 intracellular (THP-1) amastigote assay; assay type: cell-based; conditions: Leishmania donovani
in vitro [4] = conditions: human
[5] = Broth microdilution MIC assay, ESKAPE pathogens; assay type: cell-based; conditions: S. aureus, E. coli, K. pneumoniae, A. baumannii, P. aeruginosa; read-out: antibacterial MIC ESKAPE
[6] = system: ESKAPE pathogens S. aureus (ATCC 43300), E. coli (ATCC 25922), K. pneumoniae (ATCC 700603), A. baumannii (ATCC 19606), P. aeruginosa (ATCC 27853); assay: Broth microdilution MIC assay, ESKAPE pathogens; assay type: cell-based
[7] = Mammalian cytotoxicity, liver HepG2 and kidney HEK293 cell lines stated together; conditions: human
[8] = Caco-2 monolayer bidirectional permeability assay; conditions: human, Caco-2, pH 7.4
[9] = Plasma protein binding, ultrafiltration method; assay type: in vitro ADME; conditions: human plasma, % bound; for fraction unbound at 0.5 h, 5 µM: read-out: PPB (%) (converted)
[10] = system: C. difficile (630, ATCC BAA-1382); assay: Broth microdilution MIC assay, C. difficile; assay type: cell-based, Clostridium difficile; conditions: 630 ATCC BAA-1382, median MIC; for MIC: Clostridioides difficile, ATCCBAA1382, read-out: antibacterial MIC C. difficile
[11] = system: E. histolytica (HM1:IMSS); assay: ATP-bioluminescence cell growth and survival assay, E. histolytica trophozoites; assay type: cell-based; conditions: Entamoeba histolytica
[12] = Mammalian cytotoxicity assay (resazurin), HEK293; conditions: human, HEK293 cells
[13] = Mammalian cytotoxicity assay (resazurin), HepG2; conditions: human, HepG2 cells
G. lamblia (WB line) = assay: ATP-bioluminescence cell growth and survival assay, G. lamblia trophozoites; assay type: cell-based; conditions: Giardia duodenalis
M. tuberculosis (H37Rv) [14] = assay: M. tuberculosis H37Rv resazurin reduction microplate MIC assay, normoxic conditions; assay type: cell-based; conditions: Mycobacterium tuberculosis, normoxia, read-out: antibacterial MIC M. tuberculosis normoxia
[15] = system: T. b. brucei (strain 427, BS427); assay: 384-well resazurin viability assay, T. b. brucei bloodstream parasites; assay type: cell-based; conditions: Trypanosoma brucei, BS427, n = 2
[16] = system: C. albicans (ATCC 90028) and C. neoformans (H99, ATCC 208821); assay: Broth microdilution MIC assay, fungi; assay type: cell-based; conditions: for MIC: Candida albicans, read-out: antifungal MIC
in vitro [17] = conditions: human; remark: listed apart in the source
M. tuberculosis = conditions: cited from earlier work
in vitro [18] = conditions: human; remark: listed apart in the source
[19] = PBS, pH 7.4, Solubility µM (PBS), PBS pH 7.4, 24 h
[20] = water, Solubility µM (H2O), 24 h
[21] = read-out: antiparasitic IC50 L. donovani
[22] = read-out: antiparasitic pIC50 ± SE L. donovani (converted)
[23] = read-out: antiparasitic IC50 E. histolytica
[24] = read-out: antiparasitic pIC50 ± SE E. histolytica (converted)

Row | Compound | solubility at 24 h [1, 19] | solubility at 24 h [1, 20] | IC50 [3, 21] | IC50 [3, 22] | MIC [5] | antibacterial MIC ESKAPE [6] | fraction unbound at 0.5 h, 5 µM [9] | antibacterial MIC C. difficile [10] | MIC [10] | CC50 at 24 h [12] | CC50 at 24 h [13] | MIC [16] | antifungal MIC [16] | further results
1 | O=c1c2nc([N+](=O)[O-])cn2ccn1Cc1ccccc1 [17b, 7-Benzyl-2-nitroimidazo[1,2-a]pyrazin-8(7H)-one] | < 5 µM | < 5 µM | > 80 µM | > 79.4 µM | > 32 µg/mL | > 32 µg/mL | – | – | – | – | – | – | – | antibacterial MIC M. tuberculosis hypoxia (M. tuberculosis (H37Rv) [2]): 4.0 to 8.0 µg/mL; CC50 at 24 h (in vitro [4]): 105 µM; CC50 at 24 h [7]: 98 to 123 µM
2 | O=c1c2nc([N+](=O)[O-])cn2ccn1Cc1ccc(OC(F)(F)F)cc1 [17c, 2-Nitro-7-(4-(trifluoromethoxy)benzyl)imidazo[1,2-a]pyrazin-8(7H)-one] | < 5 µM | < 5 µM | > 80 µM | > 79.4 µM | > 32 µg/mL | > 32 µg/mL | 0.02 | – | – | – | – | – | – | antibacterial MIC M. tuberculosis hypoxia (M. tuberculosis (H37Rv) [2]): 1.0 to 4.0 µg/mL; Papp A→B at 2 h, 2 µM [8]: 25 ×10⁻⁶ cm/s; Papp A→B at 2 h, 2 μM [8]: > 20 ×10⁻⁶ cm/s; Papp B→A at 2 h, 2 µM [8]: 22 ×10⁻⁶ cm/s
3 | O=c1c2nc([N+](=O)[O-])cn2ccn1Cc1ccc(F)cc1 [17e, 7-(4-Fluorobenzyl)-2-nitroimidazo[1,2-a]pyrazin-8(7H)-one] | < 5 µM | < 5 µM | > 80 µM | > 79.4 µM | > 32 µg/mL | >32 µg/mL | 0.18 | – | – | – | – | – | – | –
4 | O=c1c2nc([N+](=O)[O-])cn2ccn1Cc1cccc(OC(F)(F)F)c1 [17f, 2-Nitro-7-(3-(trifluoromethoxy)benzyl)imidazo[1,2-a]pyrazin-8(7H)-one] | < 5 µM | < 5 µM | > 80 µM | > 79.4 µM | > 32 µg/mL | > 32 µg/mL | 0.01 | – | – | – | – | – | – | Papp A→B at 2 h, 2 µM [8]: 24 ×10⁻⁶ cm/s; Papp A→B at 2 h, 2 μM [8]: > 20 ×10⁻⁶ cm/s; Papp B→A at 2 h, 2 µM [8]: 24 ×10⁻⁶ cm/s
5 | O=c1c2nc([N+](=O)[O-])cn2ccn1C1CCCCC1 [17t, 7-Cyclohexyl-2-nitroimidazo[1,2-a]pyrazin-8(7H)-one] | < 10 µM | < 10 µM | > 80 µM | > 79.4 µM | > 32 µg/mL | >32 µg/mL | – | >64 µg/mL | > 64 µg/mL | 112 µM | 123 µM | – | – | IC50 [11, 23]: > 50 µM; IC50 [11, 24]: > 50.1 µM; CC50 at 24 h ([7]; HepG2 and HEK293 cells): 98 to 123 µM
6 | O=c1c2nccn2ccn1Cc1ccc(F)cc1 [20c, 7-(4-Fluorobenzyl)imidazo[1,2-a]pyrazin-8(7H)-one] | – | – | > 80 µM | > 79.4 µM | > 32 µg/mL | – | – | – | > 64 µg/mL | > 100 µM | > 100 µM | > 32 µg/mL | – | MIC (M. tuberculosis (H37Rv) [2]; Mycobacterium tuberculosis, read-out: antibacterial MIC M. tuberculosis hypoxia): > 32 µg/mL; IC50 (G. lamblia (WB line); read-out: antiparasitic IC50 G. lamblia): > 50 µM; IC50 (G. lamblia (WB line); read-out: antiparasitic pIC50 ± SE G. lamblia (converted)): > 50.1 µM; IC50 [11, 23]: > 50 µM; IC50 [11, 24]: > 50.1 µM; MIC (M. tuberculosis (H37Rv) [14]): > 32 µg/mL; IC50 ([15]; read-out: antiparasitic IC50 T. b. brucei): > 40 µM; IC50 ([15]; read-out: antiparasitic pIC50 ± SE T. b. brucei (converted)): > 39.8 µM
7 | O=c1[nH]c(-c2ccccc2)cn2cc([N+](=O)[O-])nc12 [24a, 2-Nitro-6-phenylimidazo[1,2-a]pyrazin-8(7H)-one] | – | – | > 80 µM | > 79.4 µM | > 32 µg/mL | >32 µg/mL | – | >64 µg/mL | > 64 µg/mL | – | – | > 32 µg/mL | >32 µg/mL | CC50 (in vitro [17]): > 100 µM; CC50 (in vitro [4]): > 100 µM
8 | Cc1cn2cc([N+](=O)[O-])nc2c(=O)n1Cc1ccc(OC(F)(F)F)cc1 [25f, 6-Methyl-2-nitro-7-(4-(trifluoromethoxy)benzyl)imidazo[1,2-a]pyrazin-8(7H)-one] | < 5 µM | < 5 µM | > 80 µM | > 79.4 µM | > 32 µg/mL | >32 µg/mL | 0.02 | >64 µg/mL | > 64 µg/mL | > 100 µM | > 100 µM | > 32 µg/mL | >32 µg/mL | –
9 | Cc1cn2cc([N+](=O)[O-])nc2c(OCc2ccc(OC(F)(F)F)cc2)n1 [25g, 6-Methyl-2-nitro-8-((4-(trifluoromethoxy)benzyl)oxy)imidazo[1,2-a]pyrazine] | < 5 µM | < 5 µM | > 80 µM | > 79.4 µM | > 32 µg/mL | >32 µg/mL | – | >64 µg/mL | > 64 µg/mL | > 100 µM | > 100 µM | > 32 µg/mL | >32 µg/mL | fraction unbound at 30 min, 5 μM ([9]; read-out: PPB (%)): < 0.01
10 | O=[N+]([O-])c1cn2c(n1)OC[C@H](OCc1ccc(OC(F)(F)F)cc1)C2 [(R)-PA-824 (8), (R)-PA-824] | – | – | – | – | – | – | – | – | – | – | – | – | – | activity against M. tuberculosis (M. tuberculosis): inactive
11 | FC(F)(F)Oc1ccc(CO[C@@H]2COc3nccn3C2)cc1 [compound 9, S-des-nitro-PA-824] | – | – | – | – | – | – | – | – | – | – | – | – | – | MIC M. tuberculosis aerobic growth (M. tuberculosis; aerobic growth): > 160 µM; MIC M. tuberculosis anaerobic growth (M. tuberculosis; anaerobic growth): > 500 µM
12 | CC(Cc1ccc(O)cc1)NCC(O)c1cc(O)cc(O)c1 (stereo not drawn) [fenoterol] | – | – | – | – | – | – | – | – | – | – | – | – | – | Papp A→B at 2 h, 2 µM (in vitro [18]; Caco-2, pH 7.4): 0.27 ×10⁻⁶ cm/s; recovery at 2 h, 2 µM (in vitro [18]; Caco-2, pH 7.4, mean recovery (%) A to B): 92%
13 | O=[N+]([O-])c1cn2c(n1)OC[C@@H](OCc1ccc(OC(F)(F)F)cc1)C2 [pretomanid 6, pretomanid, reference compound] | – | – | – | – | – | > 32 µg/mL | – | – | – | > 100 µM | > 100 µM | – | > 32 µg/mL | Papp A→B at 2 h, 2 µM (in vitro [18]; Caco-2, pH 7.4): 29 ×10⁻⁶ cm/s; Papp B→A at 2 h, 2 µM (in vitro [18]; Caco-2, pH 7.4): 22 ×10⁻⁶ cm/s; solubility (physchem): 11.3 ± 3.07 µM (≈ 4.06 µg/mL); solubility (physchem; pH 7.4): 10.6 ± 1.76 µM (≈ 3.81 µg/mL)
